The target of one experiment is T1, Beta-secretase 2 (Homo sapiens, UniProt Q9Y5Z0).
T1 sequence (Q9Y5Z0 whole entry): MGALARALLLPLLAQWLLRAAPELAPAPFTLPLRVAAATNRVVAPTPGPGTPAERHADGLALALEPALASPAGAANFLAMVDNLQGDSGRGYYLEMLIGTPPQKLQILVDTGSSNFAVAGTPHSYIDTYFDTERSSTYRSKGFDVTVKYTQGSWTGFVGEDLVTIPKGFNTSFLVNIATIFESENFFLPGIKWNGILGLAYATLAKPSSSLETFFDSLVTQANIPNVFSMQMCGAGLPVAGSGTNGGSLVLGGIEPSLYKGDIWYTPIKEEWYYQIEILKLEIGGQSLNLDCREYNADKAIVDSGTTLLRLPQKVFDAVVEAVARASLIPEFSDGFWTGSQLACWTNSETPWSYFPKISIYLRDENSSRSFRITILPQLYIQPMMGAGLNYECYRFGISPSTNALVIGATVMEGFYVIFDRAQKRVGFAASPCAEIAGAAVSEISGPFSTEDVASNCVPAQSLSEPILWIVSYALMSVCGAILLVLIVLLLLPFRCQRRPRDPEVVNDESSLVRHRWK
Kind of experiment: In Vitro Enzymatic BACE1 and BACE2 FRET Assays. On the procedure:
(§1) The cDNAs for both human recombinant BACE1 and BACE2 with C-terminal 6-His Tags were cloned into transient protein expression vectors, which were subsequently transfected into mammalian cell lines. These recombinant proteins were further purified using Ni-NTA affinity chromatography (Qiagen). The assay buffer used in these screens is 0.05 M acetate, pH 4.5, 8% DMSO final, 100 uM genapol (which is a nonionic detergent, below its Critical Micelle Concentration). […] This assay is effectively started by the addition of FRET substrate (50 nM) and the combination is incubated for one hour. The FRET assay is terminated by addition of Tris buffer, which raises the pH to neutrality, and the fluorescence is determined. The FRET substrate is a peptide with commercially available fluorophore and quencher, on opposite sides of the BACE cleavage site.

In another experiment the target is Cathepsin D (Homo sapiens, UniProt P07339). Kind of experiment: In Vitro Enzymatic Cathepsin D (Cat D) FRET Assay. As to the method: Recombinant Cat D was expressed in CHO cells. The assay buffer for CathepsinD is 0.05 M citrate pH 3.5, 10% DMSO final, 5 mM CHAPS. […] The assays are effectively started by the addition of different FRET substrates (20 nM for Cat D) and the combination is incubated for one hour. The FRET assay is terminated with by addition of Tris buffer, which raises the pH to neutrality, and the fluorescence is determined. The FRET substrate is a peptide with commercially available fluorophore and quencher, on opposite sides of the BACE cleavage site. […] Proteolytic cleavage of the FRET substrate releases quenching of fluorescence (Cat D excitation 500 nm and emission 580 nm).

A further experiment addresses Beta-secretase 1 (Homo sapiens, UniProt P56817). Kind of experiment: In Vitro Enzymatic BACE1 and BACE2 FRET Assays. As to the method:
as §1

Structures are written as SMILES.

Sequence of Beta-secretase 1 (P56817 whole entry): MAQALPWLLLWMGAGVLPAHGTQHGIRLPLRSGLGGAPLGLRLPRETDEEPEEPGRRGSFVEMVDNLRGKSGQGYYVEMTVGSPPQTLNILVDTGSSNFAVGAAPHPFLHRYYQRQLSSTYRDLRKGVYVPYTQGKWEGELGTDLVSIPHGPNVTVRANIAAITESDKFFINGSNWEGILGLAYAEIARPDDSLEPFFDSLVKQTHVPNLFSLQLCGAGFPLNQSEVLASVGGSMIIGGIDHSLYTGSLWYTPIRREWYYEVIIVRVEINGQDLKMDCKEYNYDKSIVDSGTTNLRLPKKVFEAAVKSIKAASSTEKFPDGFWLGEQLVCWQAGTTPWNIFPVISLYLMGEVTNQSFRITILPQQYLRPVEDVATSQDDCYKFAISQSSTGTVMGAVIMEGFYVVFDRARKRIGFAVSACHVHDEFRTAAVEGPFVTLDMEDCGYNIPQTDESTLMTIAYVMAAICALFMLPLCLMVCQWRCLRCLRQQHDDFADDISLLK
Sequence of Cathepsin D (P07339 65-162 limits assumed): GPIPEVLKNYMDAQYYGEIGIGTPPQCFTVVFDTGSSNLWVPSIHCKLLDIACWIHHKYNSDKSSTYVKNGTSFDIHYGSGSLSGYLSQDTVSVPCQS
Sequence of Cathepsin D (P07339 169-412 limits assumed): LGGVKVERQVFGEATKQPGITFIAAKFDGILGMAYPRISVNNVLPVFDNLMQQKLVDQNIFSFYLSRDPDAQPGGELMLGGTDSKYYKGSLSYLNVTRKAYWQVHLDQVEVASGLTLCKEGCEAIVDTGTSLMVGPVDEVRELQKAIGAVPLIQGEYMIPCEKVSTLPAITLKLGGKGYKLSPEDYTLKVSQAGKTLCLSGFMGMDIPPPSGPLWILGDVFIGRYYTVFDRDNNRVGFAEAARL

`NC1=N[C@](CF)(c2cc(Nc3ncnc4cc(Cl)cnc34)ccc2F)[C@H]2C[C@@H]2S1` [US20160046618, Example 39]: the IC50 (commonly the point on the concentration scale where inhibition reaches its midpoint) at Beta-secretase 2 was found to be 0.0278 µM; on Cathepsin D it was 1220 µM.
As for `Cc1cc(C#N)cnc1C(=O)Nc1cc(F)c(F)c([C@@]2(CF)N=C(N)S[C@@]3(C(F)F)C[C@@H]23)c1` [US20160046618, Example 94], the results for the IC50 on Beta-secretase 2 and at Cathepsin D were below 0.00203 µM and 559 µM, respectively.
Take `C#C[C@H](C)Oc1cnc(C(=O)Nc2cc(F)c(F)c([C@@]3(C)N=C(N)S[C@@]4(CF)C[C@H]43)c2)c(C)n1` [US20160046618, Example 616]: the IC50 at Beta-secretase 2 turned out to be 0.124 µM; at Beta-secretase 1 it was 0.00342 µM; at Cathepsin D it was 905 µM.
For the compound `C#C[C@H](C)Oc1cnc(C(=O)Nc2cc(F)c(F)c([C@@]3(C)N=C(N)S[C@@]4(COC)C[C@H]43)c2)c(C)n1` [US20160046618, Example 622], the IC50 on Beta-secretase 2 is 0.225 µM; on Beta-secretase 1, 0.00492 µM; at Cathepsin D, 946 µM.
On to `C#C[C@H](C)Oc1cnc(C(=O)Nc2ccc(F)c([C@@]3(C)N=C(N)S[C@@]4(C(F)F)C[C@@H]34)c2)c(C)c1` [US20160046618, Example 648], for which the IC50 at Beta-secretase 2 came out at 0.522 µM; on Beta-secretase 1, 0.0433 µM; on Cathepsin D, 196 µM.
The corresponding values for `C#CCOc1cnc(C(=O)Nc2ccc(F)c([C@@]3(C)N=C(N)S[C@@]4(CF)C[C@H]43)c2)cn1` [US20160046618, Example 822] are 0.0147 µM, 0.000264 µM and 150 µM.
As to `C[C@]1(c2cc(NC(=O)c3ccc(Cl)cn3)cc(F)c2F)N=C(N)S[C@@]2(C(=O)O)C[C@H]21` [US20160046618, Example 899], the concentration for half-maximal inhibition (IC50) on Beta-secretase 2 was 0.00258 µM; on Beta-secretase 1 it was 0.00889 µM; on Cathepsin D, above 400 µM.
For `NC1=N[C@](CF)(c2cc(Nc3nccc4nc(OCc5ncco5)cnc34)ccc2F)[C@@H]2C[C@]2(c2c[nH]nn2)S1` [US20160046618, Example 957], in that order: 0.00538 µM, 0.000621 µM and 1260 µM.
The corresponding values for `C=CC(C)Oc1cnc(C(=O)Nc2ccc(F)c([C@@]3(C)N=C(N)S[C@@]4(COC)C[C@H]43)c2)cn1` (stereo not given in full) [US20160046618, Example 1063] are 0.555 µM, 0.037 µM and above 400 µM.
